In patent publication US9828379B2 (priority 2013, dated 2017):

Assays:
FAAH [1] = molecular target: T1, FAAH (Mus musculus, UniProt O08914); experiment: In vitro competitive activity-based protein profiling (Table 2, % inhibition at 1 μM); type: biochemical; details: read-out: % Inhibition at 1 μM FAAH
T1 sequence (O08914 1-579): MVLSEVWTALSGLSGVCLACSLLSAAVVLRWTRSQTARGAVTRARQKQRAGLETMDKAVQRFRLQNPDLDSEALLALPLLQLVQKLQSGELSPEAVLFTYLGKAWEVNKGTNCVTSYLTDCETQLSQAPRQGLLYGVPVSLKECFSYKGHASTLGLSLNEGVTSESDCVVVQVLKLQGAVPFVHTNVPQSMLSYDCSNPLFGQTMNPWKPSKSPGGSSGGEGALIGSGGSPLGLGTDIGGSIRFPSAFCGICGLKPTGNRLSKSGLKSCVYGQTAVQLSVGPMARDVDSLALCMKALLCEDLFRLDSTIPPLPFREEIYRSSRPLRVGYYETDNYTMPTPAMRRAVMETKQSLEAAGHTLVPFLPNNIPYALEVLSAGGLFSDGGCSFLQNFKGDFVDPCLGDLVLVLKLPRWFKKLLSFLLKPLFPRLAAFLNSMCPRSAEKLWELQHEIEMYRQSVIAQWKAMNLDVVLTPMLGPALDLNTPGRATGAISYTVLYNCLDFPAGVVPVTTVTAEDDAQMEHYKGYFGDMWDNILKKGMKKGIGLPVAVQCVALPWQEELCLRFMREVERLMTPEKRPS

ABHD6 [2] = molecular target: T2, ABHD6 (Mus musculus, UniProt Q8R2Y0); experiment: as above; type: biochemical; details: read-out: % Inhibition at 1 μM ABHD6
T2 sequence (Q8R2Y0 1-336): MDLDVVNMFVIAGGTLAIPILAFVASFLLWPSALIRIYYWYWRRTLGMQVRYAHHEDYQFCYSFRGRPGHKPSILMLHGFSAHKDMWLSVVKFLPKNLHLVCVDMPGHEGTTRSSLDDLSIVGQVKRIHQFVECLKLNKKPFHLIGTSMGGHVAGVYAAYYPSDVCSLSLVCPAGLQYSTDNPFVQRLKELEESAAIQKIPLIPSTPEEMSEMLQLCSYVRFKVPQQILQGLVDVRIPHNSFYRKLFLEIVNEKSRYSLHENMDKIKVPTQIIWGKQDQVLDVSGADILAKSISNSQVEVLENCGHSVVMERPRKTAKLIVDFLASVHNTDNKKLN

MAGL [3] = molecular target: T3, MAGL (Mus musculus, UniProt O35678); experiment: biochemical; details: mouse; in vitro competitive ABPP; read-out: Mouse (IC50 value, nM) MAGL
T3 sequence (O35678 1-303): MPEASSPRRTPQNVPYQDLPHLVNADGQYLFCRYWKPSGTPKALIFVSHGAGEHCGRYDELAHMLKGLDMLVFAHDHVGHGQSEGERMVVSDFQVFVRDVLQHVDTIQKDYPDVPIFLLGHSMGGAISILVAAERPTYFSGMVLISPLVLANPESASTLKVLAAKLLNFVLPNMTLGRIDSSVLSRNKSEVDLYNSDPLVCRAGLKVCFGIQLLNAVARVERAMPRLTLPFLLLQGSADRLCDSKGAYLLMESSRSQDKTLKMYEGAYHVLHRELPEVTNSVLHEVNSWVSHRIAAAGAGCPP

MAGL [4] = molecular target: T3, MAGL; experiment: In vitro competitive activity-based protein profiling (Table 2, % inhibition at 1 μM); type: biochemical; details: read-out: % Inhibition at 1 μM MAGL
Experimental: After 30 min, FP—Rh (1.0 μL, 50 μM in DMSO) was added and the mixture was incubated for another 30 min at 37° C. Reactions were quenched with SDS loading buffer (50 μL-4×) and run on SDS-PAGE.
Cell lysates were diluted with mock proteomes for use in competitive ABPP experiments.

FAAH [5] = molecular target: T1, FAAH; experiment: biochemical; details: in vitro competitive ABPP
ABHD6 [6] = molecular target: T2, ABHD6; experiment: biochemical; details: in vitro competitive ABPP

Row | SMILES | inhibition at 1 µM (FAAH [1]) | inhibition at 1 µM (ABHD6 [2]) | IC50 (MAGL [3]) | inhibition at 1 µM (MAGL [4]) | IC50 (FAAH [5]) | IC50 (ABHD6 [6])
1 | O=C(OC(C(F)(F)F)C(F)(F)F)N1CC2CN(Cc3ccc(C(=O)N4CCCCC4)c(OC(F)(F)F)c3)CC2C1 (stereo not drawn) [Example 192, 1,1,1,3,3,3-hexafluoropropan-2-yl 5-(4-(piperidine-1-carbonyl)-3-(trifluoromethoxy)benzyl)hexahydropyrrolo[3,4-c]pyrrole-2(1H)-carboxylate] | < 25% | 25 to 75% | 100 to 1000 nM | > 75% | > 10000 nM | 1000 to 10000 nM
2 | Cc1c(CN2CC3CN(C(=O)ON4C(=O)CCC4=O)CC3C2)cccc1N1CCCCC1 (stereo not drawn) [Example 104, 2,5-Dioxopyrrolidin-1-yl 5-[[2-methyl-3-(piperidin-1-yl)phenyl]methyl]-octahydropyrrolo[3,4-c]pyrrole-2-carboxylate] | > 75% | < 25% | < 100 nM | > 75% | 100 to 1000 nM | 1000 to 10000 nM
3 | O=C(OC(C(F)(F)F)C(F)(F)F)N1CC2CN(Cc3ccc(Cl)cc3N3CCC3)CC2C1 (stereo not drawn) [Example 39, 1,1,1,3,3,3-Hexafluoropropan-2-yl 5-[[2-(azetidin-1-yl)-4-chlorophenyl]methyl]-octahydropyrrolo[3,4-c]pyrrole-2-carboxylate] | 25 to 75% | < 25% | < 100 nM | > 75% | 100 to 1000 nM | 1000 to 10000 nM
4 | O=C(OC(C(F)(F)F)C(F)(F)F)N1CC2CN(Cc3ccc(N4CCCC4)cc3C(F)F)CC2C1 (stereo not drawn) [Example 202, 1,1,1,3,3,3-hexafluoropropan-2-yl 5-(2-(difluoromethyl)-4-(pyrrolidin-1-yl)benzyl)hexahydropyrrolo[3,4-c]pyrrole-2(1H)-carboxylate] | 25 to 75% | < 25% | 100 to 1000 nM | > 75% | 1000 to 10000 nM | 1000 to 10000 nM
5 | O=C(OC(C(F)(F)F)C(F)(F)F)N1CC2CN(Cc3ccc(Cl)cc3N3CC4COCC4C3)CC2C1 (stereo not drawn) [Example 208, 1,1,1,3,3,3-hexafluoropropan-2-yl 5-(4-chloro-2-(tetrahydro-1H-furo[3,4-c]pyrrol-5(3H)-yl)benzyl)hexahydropyrrolo[3,4-c]pyrrole-2(1H)-carboxylate] | < 25% | < 25% | 100 to 1000 nM | > 75% | 1000 to 10000 nM | 1000 to 10000 nM
6 | O=C(OC(C(F)(F)F)C(F)(F)F)N1CC2CN(Cc3cccc(N4CCC5(CCOC5)C4)c3Cl)CC2C1 (stereo not drawn) [Example 48, 1,1,1,3,3,3-Hexafluoropropan-2-yl 5-[(2-chloro-3-[2-oxa-7-azaspiro[4.4]nonan-7-yl]phenyl)methyl]-octahydropyrrolo[3,4-c]pyrrole-2-carboxylate] | 25 to 75% | < 25% | < 100 nM | > 75% | 1000 to 10000 nM | 1000 to 10000 nM
7 | O=C(ON1C(=O)CCC1=O)N1CC2CN(Cc3ccc(N4CCOCC4)cc3C(F)(F)F)CC2C1 (stereo not drawn) [Example 85, 2,5-Dioxopyrrolidin-1-yl 5-[[4-(morpholin-4-yl)-2-(trifluoromethyl)phenyl]methyl]-octahydropyrrolo[3,4-c]pyrrole-2-carboxylate] | 25 to 75% | < 25% | 100 to 1000 nM | > 75% | 100 to 1000 nM | 1000 to 10000 nM
8 | O=C(OC(C(F)(F)F)C(F)(F)F)N1CC2CN(Cc3cccc(Cl)c3N3C4CCC3COC4)CC2C1 (stereo not drawn) [Example 43, 1,1,1,3,3,3-Hexafluoropropan-2-yl 5-[(3-chloro-2-[3-oxa-8-azabicyclo[3.2.1]octan-8-yl]phenyl)methyl]-octahydropyrrolo[3,4-c]pyrrole-2-carboxylate] | < 25% | < 25% | < 100 nM | > 75% | 1000 to 10000 nM | 1000 to 10000 nM
9 | CCn1cc(CN2CC3CN(C(=O)OC(C(F)(F)F)C(F)(F)F)CC3C2)c(C(=O)NC2CC2)n1 (stereo not drawn) [Example 77, 1,1,1,3,3,3-Hexafluoropropan-2-yl 5-((3-(cyclopropylcarbamoyl)-1-ethyl-1H-pyrazol-4-yl)methyl)hexahydropyrrolo[3,4-c]pyrrole-2(1H)-carboxylate] | < 25% | < 25% | 100 to 1000 nM | > 75% | > 10000 nM | 1000 to 10000 nM
10 | Cc1c(CN2CC3CN(C(=O)OC(C(F)(F)F)C(F)(F)F)CC3C2)cccc1N1CCN(S(C)(=O)=O)CC1 (stereo not drawn) [Example 150, 1,1,1,3,3,3-hexafluoropropan-2-yl 5-[[3-(4-methanesulfonylpiperazin-1-yl)-2-methylphenyl]methyl]-octahydropyrrolo[3,4-c]pyrrole-2-carboxylate] | 25 to 75% | < 25% | < 100 nM | > 75% | 1000 to 10000 nM | 1000 to 10000 nM
11 | Cn1nc(-c2ccccc2)cc1CN1CC2CN(C(=O)OC(C(F)(F)F)C(F)(F)F)CC2C1 (stereo not drawn) [Example 194, 1,1,1,3,3,3-hexafluoropropan-2-yl 5-((1-methyl-3-phenyl-1H-pyrazol-5-yl)methyl)hexahydropyrrolo[3,4-c]pyrrole-2(1H)-carboxylate] | 25 to 75% | < 25% | < 100 nM | > 75% | 1000 to 10000 nM | 1000 to 10000 nM
12 | Cc1c(CN2CC3CN(C(=O)ON4C(=O)CCC4=O)CC3C2)cccc1N1CCC(F)(F)CC1 (stereo not drawn) [Example 144, 2,5-dioxopyrrolidin-1-yl 5-[[3-(4,4-difluoropiperidin-1-yl)-2-methylphenyl]methyl]-octahydropyrrolo[3,4-c]pyrrole-2-carboxylate] | > 75% | < 25% | < 100 nM | > 75% | 100 to 1000 nM | 1000 to 10000 nM
13 | C#CCNC(=O)c1nn(CC)cc1CN1CC2CN(C(=O)OC(C(F)(F)F)C(F)(F)F)CC2C1 (stereo not drawn) [Example 178, 1,1,1,3,3,3-hexafluoropropan-2-yl 5-((1-ethyl-3-(prop-2-yn-1-ylcarbamoyl)-1H-pyrazol-4-yl)methyl)hexahydropyrrolo[3,4-c]pyrrole-2(1H)-carboxylate] | < 25% | < 25% | 100 to 1000 nM | > 75% | > 10000 nM | 1000 to 10000 nM
14 | O=C(OC(C(F)(F)F)C(F)(F)F)N1CC2CN(Cc3ccc(Cl)cc3N3CCC4(CCOCC4)C3)CC2C1 (stereo not drawn) [Example 31, 1,1,1,3,3,3-Hexafluoropropan-2-yl 5-[(4-chloro-2-[8-oxa-2-azaspiro[4.5]decan-2-yl]phenyl)methyl]-octahydropyrrolo[3,4-c]pyrrole-2-carboxylate] | < 25% | < 25% | < 100 nM | > 75% | 1000 to 10000 nM | 1000 to 10000 nM
15 | O=C(OC(C(F)(F)F)C(F)(F)F)N1CC2CN(Cc3ccc(C(F)F)cc3N3CCCC3)CC2C1 (stereo not drawn) [Example 205, 1,1,1,3,3,3-hexafluoropropan-2-yl 5-(4-(difluoromethyl)-2-(pyrrolidin-1-yl)benzyl)hexahydropyrrolo[3,4-c]pyrrole-2(1H)-carboxylate] | < 25% | < 25% | < 100 nM | > 75% | 1000 to 10000 nM | 1000 to 10000 nM
